{"source": "the NIST ThermoML archive (doi:10.1016/j.fluid.2009.11.030)", "conditions": "101.33 kPa, Liquid, Vibrating tube method", "note": "Numbers after ± are expanded uncertainties.", "data": [{"smiles": "CC(C)CO", "note": "[2-methyl-1-propanol]", "values": [{"measurement": "mass density", "setting": "288.15 K", "value": "806.121 ± 0.14", "unit": "kg/m3"}, {"measurement": "mass density", "setting": "298.15 K", "value": "798.409 ± 0.14", "unit": "kg/m3"}, {"measurement": "mass density", "setting": "313.15 K", "value": "786.515 ± 0.15", "unit": "kg/m3"}, {"measurement": "mass density", "setting": "328.15 K", "value": "774.113 ± 0.15", "unit": "kg/m3"}, {"measurement": "mass density", "setting": "338.15 K", "value": "765.452 ± 0.15", "unit": "kg/m3"}, {"measurement": "mass density", "setting": "348.15 K", "value": "756.435 ± 0.16", "unit": "kg/m3"}]}, {"smiles": "CCCCO", "note": "[butan-1-ol]", "values": [{"measurement": "mass density", "setting": "288.15 K", "value": "813.604 ± 0.11", "unit": "kg/m3"}, {"measurement": "mass density", "setting": "298.15 K", "value": "805.984 ± 0.11", "unit": "kg/m3"}, {"measurement": "mass density", "setting": "313.15 K", "value": "794.34 ± 0.12", "unit": "kg/m3"}, {"measurement": "mass density", "setting": "328.15 K", "value": "782.323 ± 0.12", "unit": "kg/m3"}, {"measurement": "mass density", "setting": "338.15 K", "value": "774.032 ± 0.13", "unit": "kg/m3"}, {"measurement": "mass density", "setting": "348.15 K", "value": "765.48 ± 0.13", "unit": "kg/m3"}]}, {"smiles": "CCOC(=O)CC(=O)OCC", "note": "[diethyl 1,3-propanedioate]", "values": [{"measurement": "mass density", "setting": "288.15 K", "value": "1060.33 ± 0.061", "unit": "kg/m3"}, {"measurement": "mass density", "setting": "298.15 K", "value": "1049.6 ± 0.057", "unit": "kg/m3"}, {"measurement": "mass density", "setting": "313.15 K", "value": "1033.5 ± 0.051", "unit": "kg/m3"}, {"measurement": "mass density", "setting": "328.15 K", "value": "1017.34 ± 0.045", "unit": "kg/m3"}, {"measurement": "mass density", "setting": "338.15 K", "value": "1006.5 ± 0.042", "unit": "kg/m3"}, {"measurement": "mass density", "setting": "348.15 K", "value": "995.631 ± 0.041", "unit": "kg/m3"}]}, {"smiles": "CCOC(C)=O", "note": "[ethyl acetate]", "values": [{"measurement": "mass density", "setting": "288.15 K", "value": "906.547 ± 0.11", "unit": "kg/m3"}, {"measurement": "mass density", "setting": "298.15 K", "value": "894.381 ± 0.12", "unit": "kg/m3"}, {"measurement": "mass density", "setting": "313.15 K", "value": "875.812 ± 0.12", "unit": "kg/m3"}, {"measurement": "mass density", "setting": "328.15 K", "value": "856.813 ± 0.13", "unit": "kg/m3"}, {"measurement": "mass density", "setting": "338.15 K", "value": "843.858 ± 0.13", "unit": "kg/m3"}, {"measurement": "mass density", "setting": "348.15 K", "value": "830.622 ± 0.14", "unit": "kg/m3"}]}, {"smiles": "CCCCCCC", "note": "[heptane]", "values": [{"measurement": "mass density", "setting": "288.15 K", "value": "688.254 ± 0.25", "unit": "kg/m3"}, {"measurement": "mass density", "setting": "298.15 K", "value": "679.787 ± 0.25", "unit": "kg/m3"}, {"measurement": "mass density", "setting": "313.15 K", "value": "666.893 ± 0.25", "unit": "kg/m3"}, {"measurement": "mass density", "setting": "328.15 K", "value": "653.72 ± 0.26", "unit": "kg/m3"}, {"measurement": "mass density", "setting": "338.15 K", "value": "644.767 ± 0.26", "unit": "kg/m3"}, {"measurement": "mass density", "setting": "348.15 K", "value": "635.631 ± 0.26", "unit": "kg/m3"}]}, {"smiles": "CCCCCO", "note": "[pentan-1-ol]", "values": [{"measurement": "mass density", "setting": "288.15 K", "value": "819.154 ± 0.14", "unit": "kg/m3"}, {"measurement": "mass density", "setting": "298.15 K", "value": "811.8 ± 0.14", "unit": "kg/m3"}, {"measurement": "mass density", "setting": "313.15 K", "value": "800.574 ± 0.14", "unit": "kg/m3"}, {"measurement": "mass density", "setting": "328.15 K", "value": "789.007 ± 0.15", "unit": "kg/m3"}, {"measurement": "mass density", "setting": "338.15 K", "value": "781.05 ± 0.15", "unit": "kg/m3"}, {"measurement": "mass density", "setting": "348.15 K", "value": "772.873 ± 0.15", "unit": "kg/m3"}]}]}
